Measurements from PMC6222706, “Evaluation of the Antioxidant and Neuroprotectant Activities of New Asymmetrical 1,3-Diketones” (Molecules : A Journal of Synthetic Chemistry and Natural …, 2018).

Columns and labels:
[1] = FRAP (Ferric Reducing Antioxidant Power) assay; assay type: biochemical; conditions: for FRAP-TEAC100: Trolox Equivalent Antioxidant Capacity vs 100 µM solution of the substance, from FRAP assay; for FRAP Assay (%) at 100 µM / FRAP Assay (%) at 200 µM: 30 min, 593 nm
Protocol: The assay was carried out according to the method of Benzie et al. with slight modifications, in a 96-well microplate. FRAP reagent was prepared by mixing 10 mL of 300 mM acetate buffer with 1 mL of 10 mM 2,4,6-tripyridyl-S-triazine (TPTZ) in HCl 40 mM and 1mL of FeCl3·6H2O 20 mM. Firstly, 190 µL of the FRAP reagent were added to all wells of the 96-well plate, followed by the addition to the well of 10 µL of the test compounds dissolved in Ethanol to reach the final concentrations assayed (0, 5, 10, 20, 50, 100, 150, 200 µM). After 30 min incubation in the dark, the absorbance was read at 593 nm. Trolox was used as assay control. Three different assays were carried out by quadruplicate for each compound.

[2] = ABTS radical scavenging assay; assay type: biochemical; conditions: for IC50: 30 min incubation, EtOH, absorbance at 734 nm; for ABTS-TEAC100: Trolox Equivalent Antioxidant Capacity vs 100 µM solution of the substance, from ABTS assay
Protocol: ABTS^+ radical was produced by reacting 2,2′-azino-bis-3-ethylbenzthiazoline-6-sulphonic acid (ABTS) 7 mM with K2S2O8 2.45 mM, both reactants dissolved in water, and at the volume ratio of 1:1. The mixture was stored in the dark at room temperature for 16 h. The ABTS^+ solution was diluted to give an absorbance of 0.750 ± 0.025 at 734 nm in EtOH. All the compounds tested were dissolved in EtOH. 150 µL of each compound solution was added to the wells of the 96-well plate, followed by the addition of 50 µL of the ABTS^+ radical solution. Final compound concentrations tested were 0, 5, 10, 20, 50, 100, 150, 200 µM. The absorbance change at 734 nm was recorded after 30 min incubation in the dark, and the percentage of radical scavenging was calculated for each concentration relative to a blank containing no scavenger. The degree of decolorization was calculated as the percentage reduction of absorbance. The ABTS^+ radical scavenging activity was calculated as follows: Percentage ABTS^+ radical scavenging activity = {1 − [As/Ac]} × 100(1) where As is the absorbance of the ABTS^+ radical solution containing samples and Ac the absorbance of the control solution without antioxidant. The percentages of ABTS^+ radical reduced were plotted against compound concentration. Trolox was used as a reference antioxidant. All the assays were carried out three times by quadruplicate for each compound.

[3] = Cytotoxicity in SH-SY5Y cells (MTT); assay type: cell-based; conditions: human, SH-SY5Y neuronal cells, concentration reducing cell viability to 50% of control
Protocol: So, to study the neuroprotectant potential of β-diketones in the SH-SY5Y cell line, we firstly need to determine their cytotoxicity in the same cellular model. […] In addition to that, within each series, the introduction of a second fluorine atom in the left-hand side phenyl ring decreases also the cytotoxicity.
SH-SY5Y cells were seeded into 96-well plates at a density of 5 × 10^3 cells/well and grown in the incubator for 24 h. All compounds tested were dissolved and eventually further diluted in dimethylsulfoxide (DMSO). After overnight incubation, the cells were treated with different test concentrations (5, 10, 20, 50, 100, 150, 200 µM) in a final volume of 200 µL with four replicates each. […] Cell proliferation or viability was measured using the 3-(4,5-dimethylthiazol-2-yl)-2,5-diphenyl tetrazolium bromide (MTT) assay. After 24 h, 20 µL of MTT (5 mg/mL) was added to each well and the plate was incubated at 37 °C in the dark for 2 h. Supernatants were removed and the formazan crystals were solubilized in DMSO (200 µL/well), under 10 min shaking at room temperature. The reduction of MTT was quantified by absorbance at 570 nm Varioskan microplate reader (Thermo Fisher Scientific, Vantaa, Finland). Effects of the test compounds on cell viability were calculated using cells treated with vehicle as control. The data were subjected to linear regression analysis and the regression lines were plotted for the best fit. The IC50 (inhibition of cell viability) concentrations were calculated using the respective dose-response curves.

[4] = Iron chelation capacity (Fe^+2-ferrozine complex); assay type: biochemical; conditions: all experiments, both 50 and 200 µM
Protocol: To decrease the level of free Fe^2+ that can reduce H2O2 to the ^•OH radical and produce other ROS, it is worth to evaluate the iron chelation capacity of new potential AOX compounds as potential new therapeutic agents against neurodegenerative diseases. […] In this assay ferrozine form complexes with Fe^+2 in a quantitative manner, and in the presence of chelating compounds this complex is disrupted.
The iron chelation capacity was determined according to the method of Dinis et al., using ferrous chloride instead of ferrous sulfate. In this method, ferrozine can form complexes with a ferrous ion in a quantitative way yielding a red color with maximum absorbance at 562 nm. In the presence of other iron chelators, a decoloration is observed due to the competition with ferrozine for the metal. The assay was carried out in a 96 well plate. Serial dilutions of test compound (0, 5, 10, 25, 50, 100, 150, 200 µM) were dispensed (180 µL) into each well and then 10 µL of FeCl2 1 mM were added (final FeCl2 concentration, […]). After shaking the plate for 1 min, 10 µL of Ferrozine 2 mM were added. The mixture was shaken thoroughly and left to stand for 20 min at room temperature. The absorbance was measured at 562 nm with a Varioskan microplate reader. […] The compound iron chelation activity was calculated as the percentage of inhibition of the Fe^+2-Ferrozine complex by the formula in Equation (3):%Inhibition = {(Ao − As)/Ao} × 100(3) where Ao is the absorbance of the control, and As is the absorbance in the presence of the test compound. EDTA was used as a positive control. All the experiments were performed three times by quadruplicate for each compound concentration.

[5] = DPPH radical scavenging assay; assay type: biochemical; conditions: antioxidant concentration that decreases initial DPPH^• concentration by 50%; 30 min, 517 nm
Protocol: The assay was performed in a 96-well microplate. A 0.2 mM solution of 2,2-diphenyl-1-picryl-hydrazyl-hydrate (DPPH) in ethanol was prepared. All the compounds tested were dissolved in EtOH. Firstly, 150 µL of each compound solution was added to the wells of the 96-well plate, followed by the addition of 50 µL of the DPPH solution. Final compound concentrations tested were 0, 5, 10, 20, 50, 100, 150, 200 µM. The change in absorbance at 517 nm was measured after 30 min incubation in the dark. The free radical scavenging activity was calculated as inhibition using the following Equation (2): Percentage DPPH radical scavenging activity = {1 − [As/Ac]} × 100(2) where As is the absorbance of the DPPH solution containing samples and Ac the absorbance of the control solution without antioxidant but with DPPH. The percentages of DPPH reduced were plotted against compound concentration. The experiment was also conducted using Trolox as reference antioxidant. Assays were performed three times by quadruplicate for each compound.

With O=C(/C=C(O)/C=C/c1ccc(O)c(F)c1)c1ccccc1 [Compound 3a, (2Z,4E)-5-(3-fluoro-4-hydroxyphenyl)-3-hydroxy-1-phenylpenta-2,4-dien-1-one] the FRAP-TEAC100 [1] was 0.33, the “FRAP Assay (%) at 100 µM” value [1] was 20.5% and the “FRAP Assay (%) at 200 µM” value [1] was 31.0%. The IC50 [2] was 60.2 ± 2.2 µM, the ABTS-TEAC100 [2] was 0.51 and the IC50 at 24 h [3] was 98.1 ± 8.3 µM.

In the case of COc1cc(/C=C/C(O)=C/C(=O)c2ccccc2)ccc1F [Compound 2a, (2Z,4E)-5-(4-fluoro-3-methoxyphenyl)-3-hydroxy-1-phenylpenta-2,4-dien-1-one], the FRAP-TEAC100 [1] is reported as 0.00, the “FRAP Assay (%) at 100 µM” value [1] is reported as 0.1% and the “FRAP Assay (%) at 200 µM” value [1] is reported as 0.7%. For the same compound, the IC50 [2] was greater than 600 µM, the ABTS-TEAC100 [2] was 0.21 and the IC50 at 24 h [3] was 75.7 ± 5.4 µM.

In the case of O=C(/C=C(O)/C=C/c1ccc(O)cc1F)c1ccccc1 [Compound 4a, (2Z,4E)-5-(2-fluoro-4-hydroxyphenyl)-3-hydroxy-1-phenylpenta-2,4-dien-1-one], the FRAP-TEAC100 [1] is reported as 0.15, the “FRAP Assay (%) at 100 µM” value [1] is reported as 9.8% and the “FRAP Assay (%) at 200 µM” value [1] is reported as 14.3%. It also gave an IC50 [2] of 108 ± 7.6 µM, an ABTS-TEAC100 [2] of 0.40 and an IC50 at 24 h [3] of 104 ± 7.1 µM.

For O=C(/C=C(O)/C=C/c1ccc(F)c(O)c1F)C(F)(F)F [Compound 5b, (3Z,5E)-6-(2,4-difluoro-3-hydroxyphenyl)-1,1,1-trifluoro-4-hydroxyhexa-3,5-dien-2-one], the FRAP-TEAC100 [1] was 0.05, the “FRAP Assay (%) at 100 µM” value [1] was 3.0% and the “FRAP Assay (%) at 200 µM” value [1] was 4.7%. The IC50 [2] was 518 ± 94.6 µM, the ABTS-TEAC100 [2] was 0.32 and the IC50 at 24 h [3] was 153 ± 21 µM.

In the case of O=C(/C=C(O)/C=C/c1ccc(O)c(F)c1)C(F)(F)F [Compound 3b, (3Z,5E)-1,1,1-trifluoro-6-(3-fluoro-4-hydroxyphenyl)-4-hydroxyhexa-3,5-dien-2-one], the FRAP-TEAC100 [1] is reported as 0.34, the “FRAP Assay (%) at 100 µM” value [1] is reported as 19.7% and the “FRAP Assay (%) at 200 µM” value [1] is reported as 32.6%. The IC50 [2] was 113 ± 12.4 µM, the ABTS-TEAC100 [2] was 0.67 and the IC50 at 24 h [3] was 109 ± 7.6 µM.

With O=C(O)CN(CCN(CC(=O)O)CC(=O)O)CC(=O)O [EDTA, reference compound] the “Inhibition of the Fe^+2-Ferrozine complex” value [4] was “completely inhibits”.

With COc1cc(/C=C/C(O)=C/C(=O)C(F)(F)F)ccc1F [Compound 2b, (3Z,5E)-1,1,1-trifluoro-6-(4-fluoro-3-methoxyphenyl)-4-hydroxyhexa-3,5-dien-2-one] the FRAP-TEAC100 [1] was 0.03, the “FRAP Assay (%) at 100 µM” value [1] was 1.9% and the “FRAP Assay (%) at 200 µM” value [1] was 3.1%. For the same compound, the IC50 [2] was greater than 600 µM, the ABTS-TEAC100 [2] was 0.23 and the IC50 at 24 h [3] was 88 ± 4.5 µM.

For O=C(/C=C(O)/C=C/c1ccc(F)c(O)c1F)c1ccccc1 [Compound 5a, (2Z,4E)-5-(2,4-difluoro-3-hydroxyphenyl)-3-hydroxy-1-phenylpenta-2,4-dien-1-one], the FRAP-TEAC100 [1] was 0.05, the “FRAP Assay (%) at 100 µM” value [1] was 3.4% and the “FRAP Assay (%) at 200 µM” value [1] was 5.3%. The IC50 [2] was 275 ± 35.3 µM, the ABTS-TEAC100 [2] was 0.23 and the IC50 at 24 h [3] was 119 ± 8.5 µM.

For O=C(/C=C(O)/C=C/c1ccc(O)cc1F)C(F)(F)F [Compound 4b, (3Z,5E)-1,1,1-trifluoro-6-(2-fluoro-4-hydroxyphenyl)-4-hydroxy-hexa-3,5-dien-2-one], the FRAP-TEAC100 [1] was 0.09, the “FRAP Assay (%) at 100 µM” value [1] was 4.8% and the “FRAP Assay (%) at 200 µM” value [1] was 8.5%. The IC50 [2] was 216 ± 39.5 µM, the ABTS-TEAC100 [2] was 0.52 and the IC50 at 24 h [3] was 138 ± 6.5 µM.

For O=C(/C=C(O)/C=C/c1cc(F)c(O)cc1F)c1ccccc1 [Compound 6a, (2Z,4E)-5-(2,5-difluoro-4-hydroxyphenyl)-3-hydroxy-1-phenylpenta-2,4-dien-1-one], the FRAP-TEAC100 [1] was 0.25, the “FRAP Assay (%) at 100 µM” value [1] was 15.5% and the “FRAP Assay (%) at 200 µM” value [1] was 25.2%. It also gave an IC50 [2] of 67.2 ± 2.7 µM, an ABTS-TEAC100 [2] of 0.51 and an IC50 at 24 h [3] of 134 ± 6.6 µM.

With Cc1c(C)c2c(c(C)c1O)CCC(C)(C(=O)O)O2 (centres unmarked) [Trolox, reference compound] the FRAP-TEAC100 [1] was 1, the “FRAP Assay (%) at 100 µM” value [1] was 53.0% and the “FRAP Assay (%) at 200 µM” value [1] was 100.0%. For the same compound, the IC50 [2] was 34 ± 2.3 µM, the ABTS-TEAC100 [2] was 1 and the IC50 [5] was 19 ± 1.8 µM.

In the case of COc1cc(/C=C/C(O)=C/C(=O)C(F)(F)F)ccc1O [Compound 1b, (3Z,5E)-1,1,1-trifluoro-4-hydroxy-6-(4-hydroxy-3-methoxyphenyl)hexa-3,5-dien-2-one], the FRAP-TEAC100 [1] is reported as 0.64, the “FRAP Assay (%) at 100 µM” value [1] is reported as 36.6% and the “FRAP Assay (%) at 200 µM” value [1] is reported as 61.4%. It also gave an IC50 [2] of 34.6 ± 2.7 µM, an ABTS-TEAC100 [2] of 0.73 and an IC50 [5] of 53.8 ± 2.6 µM. For the same compound, the IC50 at 24 h [3] was 102 ± 5.6 µM.
